The numbers were not newly measured in patent US20230193011A1, “COLOR CHANGING POLYMERIC RESIN COMPOSITIONS” (ECOLAB USA INC., priority 2021, published 2023), which cites them from elsewhere.

The conditions of the series: for High pH color: color above the transition range; for Low pH color: color below the transition range; for pH start: pH at which the color change begins; for pH end: pH at which the color change ends.
[1] abbreviates: listed as Malachite green - step 2.

Where two headings read alike, the source gives them in different places.

The term pKa denotes the negative logarithm of the acid dissociation constant. As to `O=C(O)c1cc(N=Nc2ccc([N+](=O)[O-])cc2)ccc1O` [Alizarin yellow R], the pKa is reported as 11.2, the “High pH color” value is recorded as “red”, the “Low pH color” value is given as “yellow” and the pH start is reported as 10.1. Besides, the pH end was 12.0.

Take `Cc1c(C2(c3cc(Br)c(O)c(Br)c3C)OS(=O)(=O)c3ccccc32)cc(Br)c(O)c1Br` [Bromocresol green]: the pKa is recorded as 4.7, the “High pH color” value was “blue”, the “Low pH color” value is given as “yellow” and the pH start is reported as 3.8. In addition, the pH end is recorded as 5.4.

On to `Cc1cc(C2(c3cc(C)c(O)c(Br)c3)OS(=O)(=O)c3ccccc32)cc(Br)c1O` [Bromocresol purple], for which the pKa is 6.4, the “High pH color” value was “purple”, the “Low pH color” value is recorded as “yellow” and the pH start is recorded as 5.2. The pH end is given as 6.8.

As to `O=S1(=O)OC(c2cc(Br)c(O)c(Br)c2)(c2cc(Br)c(O)c(Br)c2)c2ccccc21` [Bromophenol blue], the “High pH color” value is listed as “blue”, the “Low pH color” value is listed as “yellow”, the pH start is recorded as 3.0 and the pH end is 4.6.

In the case of `Cc1c(C2(c3cc(C(C)C)c(O)c(Br)c3C)OS(=O)(=O)c3ccccc32)cc(C(C)C)c(O)c1Br` [Bromothymol blue], the “High pH color” value is given as “blue”, the “Low pH color” value was “yellow”, the pH start is given as 6.0 and the pH end is reported as 7.6.

With `Nc1c(/N=N/c2ccc(-c3ccc(/N=N/c4cc(S(=O)(=O)O)c5ccccc5c4N)cc3)cc2)cc(S(=O)(=O)O)c2ccccc12` [Congo red], the “High pH color” value is reported as “red”, the “Low pH color” value is reported as “blue-violet”, the pH start is listed as 3.0 and the pH end was 5.0.

Regarding `Cc1cc(C2(c3ccc(O)c(C)c3)OS(=O)(=O)c3ccccc32)ccc1O` [Cresol red - step 1, Cresol red], the “High pH color” value is “yellow”, the “Low pH color” value is given as “red”, the pH start is reported as 0.2 and the pH end was 1.8. Moreover, where the note is “listed as Cresol red - step 2”, the “High pH color” value is reported as “reddish-”, the “Low pH color” value was “yellow”, the pH start is on record as 7.2 and the pH end is on record as 8.8.

On to `Cc1cc(C2(c3ccc(O)c(C)c3)OC(=O)c3ccccc32)ccc1O` [Cresolphthalein], for which the “High pH color” value is reported as “purple”, the “Low pH color” value is “colorless”, the pH start is 8.2 and the pH end was 9.8.

As for `O=C1/C(=C2\Nc3ccc(S(=O)(=O)[O-])cc3C2=O)Nc2ccc(S(=O)(=O)[O-])cc21.[Na+].[Na+]` [Indigo carmine], the “High pH color” value is recorded as “yellow”, the “Low pH color” value was “blue”, the pH start is on record as 11.4 and the pH end is given as 13.0.

With `CN(C)c1ccc(C(=C2C=CC(=[N+](C)C)C=C2)c2ccccc2)cc1` [Malachite green - step 1, Malachite green], the “High pH color” value was “green”, the “Low pH color” value is given as “yellow”, the pH start is given as 0.2 and the pH end is reported as 1.8. Also, under setting [1], the “High pH color” value is reported as “colorless”, the “Low pH color” value is “green”, the pH start was 11.5 and the pH end is on record as 13.2.

On to `CN(C)c1ccc(N=Nc2ccc(S(=O)(=O)[O-])cc2)cc1.[Na+]` [Methyl orange], for which the pKa is 3.5, the “High pH color” value is reported as “yellow”, the “Low pH color” value is “red” and the pH start was 3.1. Also, the pH end is 4.4.

For `CN(C)c1ccc(/N=N/c2ccccc2C(=O)O)cc1` [Methyl red], the pKa was 5.1, the “High pH color” value was “yellow”, the “Low pH color” value was “red” and the pH start was 4.4. For the same molecule, the pH end is on record as 6.2.

With `CN(C)c1ccc(N=Nc2ccccc2)cc1` [Methyl yellow], the pKa is reported as 3.3, the “High pH color” value is on record as “yellow”, the “Low pH color” value is given as “red” and the pH start was 2.9. Further, the pH end is 4.0.

As to `O=C1OC(c2ccc(O)c3ccccc23)(c2ccc(O)c3ccccc23)c2ccccc21` [Naphtholphthalein], the “High pH color” value is “greenish-”, the “Low pH color” value is given as “pale red”, the pH start is given as 7.3 and the pH end is listed as 8.7.

Turning to `Cc1cc2nc3ccc(N(C)C)cc3nc2cc1N.Cl` [Neutral red], the “High pH color” value was “yellow”, the “Low pH color” value is on record as “red”, the pH start is recorded as 6.8 and the pH end was 8.0.

As for `O=C1OC(c2ccc(O)cc2)(c2ccc(O)cc2)c2ccccc21` [Phenolphthalein], the pKa was 9.5, the “High pH color” value is “red-pink”, the “Low pH color” value is given as “colorless” and the pH start is on record as 8.3. Besides, the pH end was 10.0.

For `Cc1cc(O)c(C(C)C)cc1C1(c2cc(C(C)C)c(O)cc2C)OS(=O)(=O)c2ccccc21` [Thymol blue - step 1, Thymol blue], the pKa is recorded as 1.7, the “High pH color” value is listed as “yellow”, the “Low pH color” value is reported as “red” and the pH start was 1.2. Also, the pH end was 2.8. Under “listed as Thymol blue - step 2”, the “High pH color” value was “blue”, the “Low pH color” value is listed as “yellow”, the pKa is listed as 9.2 and the pH start is on record as 8.0. In addition, the pH end (listed as Thymol blue - step 2) was 9.6.

`Cc1cc(O)c(C(C)C)cc1C1(c2cc(C(C)C)c(O)cc2C)OC(=O)c2ccccc21` [Thymolphthalein]: the pKa is 9.2, the “High pH color” value is given as “blue”, the “Low pH color” value is given as “colorless” and the pH start is listed as 9.0. Besides, the pH end is reported as 10.5.

For the molecule Azolitmin [Azolitmin (litmus)], the “High pH color” value was “blue”, the “Low pH color” value was “red”, the pH start was 4.5 and the pH end is 8.3.

In the case of Methyl purple, the “High pH color” value is recorded as “green”, the “Low pH color” value was “purple”, the pH start is 4.8 and the pH end is recorded as 5.4.
